ChEMBL document CHEMBL3421531, “Synthesis, and structure-activity relationship for C(4) and/or C(5) thienyl substituted pyrimidines, as a new family of antimycobacterial compounds” (Eur J Med Chem, 2015)
Converted amounts (≈) assume the structure as drawn.

Key:
[1] = tested on: Mycobacterium tuberculosis; assay: Antimycobacterial activity against Mycobacterium tuberculosis H37Rv after 10 days by microbroth dilution method; format: functional; conditions: 240 h
Mycobacterium avium = assay: Antimycobacterial activity against Mycobacterium avium after 10 days by microbroth dilution method; format: functional; conditions: 240 h
Mycolicibacter terrae = assay: Antimycobacterial activity against Mycobacterium terrae after 10 days by microbroth dilution method; format: functional; conditions: 240 h
[2] = Toxicity in peroral dosed mouse after 14 days; format: organism-based; conditions: in vivo, po

c1csc(-c2ccc(-c3ccncn3)s2)c1
MIC [1]: 51.2 µM (≈ 12.5 µg/mL)
MIC (Mycobacterium avium): 51.2 µM (≈ 12.5 µg/mL)
MIC (Mycolicibacter terrae): 51.2 µM (≈ 12.5 µg/mL)

Brc1ccc(-c2cncnc2)s1
MIC [1]: 51.8 µM (≈ 12.5 µg/mL)
MIC (Mycobacterium avium): 51.8 µM (≈ 12.5 µg/mL)
MIC (Mycolicibacter terrae): 51.8 µM (≈ 12.5 µg/mL)

c1csc(-c2ncncc2-c2ccsc2)c1
MIC [1]: 25.6 µM (≈ 6.25 µg/mL)
MIC (Mycobacterium avium): 25.6 µM (≈ 6.25 µg/mL)
MIC (Mycolicibacter terrae): 25.6 µM (≈ 6.25 µg/mL)

c1csc(-c2ccc(-c3ncncc3-c3ccsc3)s2)c1
MIC [1]: 19.1 µM (≈ 6.25 µg/mL)
MIC (Mycobacterium avium): 19.1 µM (≈ 6.25 µg/mL)
MIC (Mycolicibacter terrae): 19.1 µM (≈ 6.25 µg/mL)

c1ccc(-c2ccc(-c3ncncc3-c3ccsc3)s2)cc1
MIC [1]: 19.5 µM (≈ 6.25 µg/mL)
MIC (Mycobacterium avium): 19.5 µM (≈ 6.25 µg/mL)
MIC (Mycolicibacter terrae): 19.5 µM (≈ 6.25 µg/mL)

Brc1ccc(-c2ncncc2-c2ccsc2)s1
MIC [1]: 19.3 µM (≈ 6.25 µg/mL)
MIC (Mycobacterium avium): 19.3 µM (≈ 6.25 µg/mL)
MIC (Mycolicibacter terrae): 19.3 µM (≈ 6.25 µg/mL)

c1csc(-c2ncncc2-c2cc3ccccc3s2)c1
MIC [1]: 21.2 µM (≈ 6.25 µg/mL)
MIC (Mycobacterium avium): 21.2 µM (≈ 6.25 µg/mL)
MIC (Mycolicibacter terrae): 21.2 µM (≈ 6.25 µg/mL)

c1csc(-c2ccc(-c3ncncc3-c3cc4ccccc4s3)s2)c1
MIC [1]: 33.2 µM (≈ 12.5 µg/mL)
MIC (Mycobacterium avium): 33.2 µM (≈ 12.5 µg/mL)
MIC (Mycolicibacter terrae): 33.2 µM (≈ 12.5 µg/mL)

c1ccc(-c2ccc(-c3ncncc3-c3cc4ccccc4s3)s2)cc1
MIC [1]: 8.37 µM (≈ 3.1 µg/mL)
MIC (Mycobacterium avium): 8.37 µM (≈ 3.1 µg/mL)
MIC (Mycolicibacter terrae): 4.05 µM (≈ 1.5 µg/mL)

Brc1ccc(-c2ncncc2-c2cc3ccccc3s2)s1
MIC [1]: 33.5 µM (≈ 12.5 µg/mL)
MIC (Mycobacterium avium): 33.5 µM (≈ 12.5 µg/mL)
MIC (Mycolicibacter terrae): 33.5 µM (≈ 12.5 µg/mL)

c1csc(-c2ncncc2-c2csc3ccccc23)c1
MIC [1]: 42.5 µM (≈ 12.5 µg/mL)
MIC (Mycobacterium avium): 42.5 µM (≈ 12.5 µg/mL)
MIC (Mycolicibacter terrae): 42.5 µM (≈ 12.5 µg/mL)

c1csc(-c2ccc(-c3ncncc3-c3csc4ccccc34)s2)c1
LD50 at 336 h [2]: 90 mg/kg
MIC [1]: 0.98 µM (≈ 0.369 µg/mL)
MIC (Mycobacterium avium): 0.98 µM (≈ 0.369 µg/mL)
MIC (Mycolicibacter terrae): 0.4 µM (≈ 0.151 µg/mL)

c1ccc(-c2ccc(-c3ncncc3-c3csc4ccccc34)s2)cc1
LD50 at 336 h [2]: 45 mg/kg
MIC [1]: 0.4 µM (≈ 0.148 µg/mL)
MIC (Mycobacterium avium): 0.4 µM (≈ 0.148 µg/mL)
MIC (Mycolicibacter terrae): 0.4 µM (≈ 0.148 µg/mL)

Brc1ccc(-c2ncncc2-c2csc3ccccc23)s1
MIC [1]: 8.3 µM (≈ 3.1 µg/mL)
MIC (Mycobacterium avium): 8.3 µM (≈ 3.1 µg/mL)
MIC (Mycolicibacter terrae): 4.02 µM (≈ 1.5 µg/mL)

Brc1cncnc1
MIC [1]: 78.6 µM (≈ 12.5 µg/mL)
MIC (Mycobacterium avium): 78.6 µM (≈ 12.5 µg/mL)
MIC (Mycolicibacter terrae): 78.6 µM (≈ 12.5 µg/mL)

c1csc(-c2cncnc2)c1
MIC [1]: 38.5 µM (≈ 6.25 µg/mL)
MIC (Mycobacterium avium): 19.1 µM (≈ 3.1 µg/mL)
MIC (Mycolicibacter terrae): 19.1 µM (≈ 3.1 µg/mL)

c1ncc(-c2ccsc2)cn1
MIC [1]: 77.1 µM (≈ 12.5 µg/mL)
MIC (Mycobacterium avium): 77.1 µM (≈ 12.5 µg/mL)
MIC (Mycolicibacter terrae): 77.1 µM (≈ 12.5 µg/mL)

c1ccc2sc(-c3cncnc3)cc2c1
MIC [1]: 58.9 µM (≈ 12.5 µg/mL)
MIC (Mycobacterium avium): 58.9 µM (≈ 12.5 µg/mL)
MIC (Mycolicibacter terrae): 58.9 µM (≈ 12.5 µg/mL)

c1ccc2c(-c3cncnc3)csc2c1
LD50 at 336 h [2]: 700 mg/kg
MIC [1]: 7.07 µM (≈ 1.5 µg/mL)
MIC (Mycobacterium avium): 3.3 µM (≈ 0.701 µg/mL)
MIC (Mycolicibacter terrae): 3.3 µM (≈ 0.701 µg/mL)

c1csc(-c2ccc(-c3cncnc3)s2)c1
MIC [1]: 25.6 µM (≈ 6.25 µg/mL)
MIC (Mycobacterium avium): 25.6 µM (≈ 6.25 µg/mL)
MIC (Mycolicibacter terrae): 25.6 µM (≈ 6.25 µg/mL)

c1ccc(-c2ccc(-c3cncnc3)s2)cc1
MIC [1]: 26.2 µM (≈ 6.25 µg/mL)
MIC (Mycobacterium avium): 26.2 µM (≈ 6.25 µg/mL)
MIC (Mycolicibacter terrae): 26.2 µM (≈ 6.25 µg/mL)

Brc1ccc(-c2ncncc2Br)s1
MIC [1]: 9.69 µM (≈ 3.1 µg/mL)
MIC (Mycobacterium avium): 9.69 µM (≈ 3.1 µg/mL)
MIC (Mycolicibacter terrae): 9.69 µM (≈ 3.1 µg/mL)

c1csc(-c2cncnc2-c2cccs2)c1
MIC [1]: 12.7 µM (≈ 3.1 µg/mL)
MIC (Mycobacterium avium): 12.7 µM (≈ 3.1 µg/mL)
MIC (Mycolicibacter terrae): 12.7 µM (≈ 3.1 µg/mL)

c1csc(-c2ccc(-c3ncncc3-c3cccs3)s2)c1
LD50 at 336 h [2]: 160 mg/kg
MIC [1]: 2.14 µM (≈ 0.699 µg/mL)
MIC (Mycobacterium avium): 0.92 µM (≈ 0.3 µg/mL)
MIC (Mycolicibacter terrae): 0.92 µM (≈ 0.3 µg/mL)

c1ccc(-c2ccc(-c3ncncc3-c3cccs3)s2)cc1
MIC [1]: 39 µM (≈ 12.5 µg/mL)
MIC (Mycobacterium avium): 39 µM (≈ 12.5 µg/mL)
MIC (Mycolicibacter terrae): 39 µM (≈ 12.5 µg/mL)

Brc1ccc(-c2ncncc2-c2cccs2)s1
MIC [1]: 38.7 µM (≈ 12.5 µg/mL)
MIC (Mycobacterium avium): 38.7 µM (≈ 12.5 µg/mL)
MIC (Mycolicibacter terrae): 38.7 µM (≈ 12.5 µg/mL)

NNC(=O)c1ccncc1 [ISONIAZID]
MIC [1]: 0.73 µM (≈ 0.1 µg/mL)
MIC (Mycobacterium avium): 0.73 µM (≈ 0.1 µg/mL)
MIC (Mycolicibacter terrae): 0.73 µM (≈ 0.1 µg/mL)

NC(=O)c1cnccn1 [PYRAZINAMIDE]
MIC [1]: 102 µM (≈ 12.5 µg/mL)
